The test system of data set [1] is Schoenoplectiella juncoides. Nature of the data set: Pre-emergent herbicidal activity against Schoenoplectiella juncoides assessed as growth inhibition at 25 g/a after 3 weeks in greenhouse conditions. The class given is functional. To be noted: pre-emergence, 504 h, read-out: GI.
For data set [2], the system named is Echinochloa oryzicola. Put plainly: Pre-emergent herbicidal activity against Echinochloa oryzicola assessed as growth inhibition at 10 g/a after 3 weeks in greenhouse conditions. It is filed as functional. To be noted: pre-emergence, 504 h, read-out: GI.
In data set [3] the test system is Lindernia procumbens. Put plainly: Pre-emergent herbicidal activity against Lindernia procumbens assessed as growth inhibition at 10 g/a after 3 weeks in greenhouse conditions. To be noted: pre-emergence, 504 h, read-out: GI. It is filed as functional.
For data set [4], the system named is Lindernia procumbens. Put plainly: Pre-emergent herbicidal activity against Lindernia procumbens assessed as growth inhibition at 25 g/a after 3 weeks in greenhouse conditions. The class given is functional. To be noted: pre-emergence, 504 h, read-out: GI.
Data set [5] concerns Cyperus serotinus. Put plainly: Pre-emergent herbicidal activity against Cyperus serotinus assessed as growth inhibition at 10 g/a after 3 weeks in greenhouse conditions. The class given is functional. To be noted: pre-emergence, 504 h, read-out: GI.
The subject of data set [6] is Eleocharis kuroguwai. Nature of the data set: Pre-emergent herbicidal activity against Eleocharis kuroguwai assessed as growth inhibition at 10 g/a after 3 weeks in greenhouse conditions. It is filed as functional. To be noted: pre-emergence, 504 h, read-out: GI.
Data set [7] relates to Eleocharis acicularis. Nature of the data set: Pre-emergent herbicidal activity against Eleocharis acicularis assessed as growth inhibition at 25 g/a after 3 weeks in greenhouse conditions. The class given is functional. To be noted: pre-emergence, 504 h, read-out: GI.
Data set [8] deals with Cyperus serotinus. Put plainly: Pre-emergent herbicidal activity against Cyperus serotinus assessed as growth inhibition at 25 g/a after 3 weeks in greenhouse conditions. To be noted: pre-emergence, 504 h, read-out: GI. It is filed as functional.
Data set [9] deals with Eleocharis acicularis. Nature of the data set: Pre-emergent herbicidal activity against Eleocharis acicularis assessed as growth inhibition at 10 g/a after 3 weeks in greenhouse conditions. It is filed as functional. To be noted: pre-emergence, 504 h, read-out: GI.
Data set [10] in a line: Phytotoxicity against Oryza sativa (rice) assessed as growth inhibition at 25 g/a after 3 weeks in greenhouse conditions. To be noted: in vivo, read-out: GI. The class given is organism-based.
Data set [11] has as its system Eleocharis kuroguwai. Nature of the data set: Pre-emergent herbicidal activity against Eleocharis kuroguwai assessed as growth inhibition at 25 g/a after 3 weeks in greenhouse conditions. The class given is functional. To be noted: pre-emergence, 504 h, read-out: GI.
Data set [12] relates to Echinochloa oryzicola. Nature of the data set: Pre-emergent herbicidal activity against Echinochloa oryzicola assessed as growth inhibition at 25 g/a after 3 weeks in greenhouse conditions. The class given is functional. To be noted: pre-emergence, 504 h, read-out: GI.
Data set [13] is described as follows: Phytotoxicity against Oryza sativa (rice) assessed as growth inhibition at 10 g/a after 3 weeks in greenhouse conditions. The class given is organism-based. To be noted: in vivo, read-out: GI.
In data set [14] the test system is Schoenoplectiella juncoides. Nature of the data set: Pre-emergent herbicidal activity against Schoenoplectiella juncoides assessed as growth inhibition at 10 g/a after 3 weeks in greenhouse conditions. The class given is functional. To be noted: pre-emergence, 504 h, read-out: GI.

Take `CCSc1c(C)on(C(=O)N(c2ccc(Cl)cc2)C(C)C)c1=O`: the inhibition of growth at 2500 g/ha (in data set [1]; in the data set with Lindernia procumbens [4]; in the data set with Eleocharis acicularis [7]; in the data set on Cyperus serotinus [8]; in the data set on Eleocharis kuroguwai [11]; in the data set with Echinochloa oryzicola [12]) was more than 91% in each case. In addition, the inhibition of growth at 1000 g/ha (in the data set with Echinochloa oryzicola [2]; in the data set on Lindernia procumbens [3]; in the data set on Cyperus serotinus [5]; with Eleocharis kuroguwai [6]; with Eleocharis acicularis [9]; in data set [14]) was more than 91% in each case. For the same molecule, the inhibition at 504 h is 11% in data set [10] and less than 10% in data set [13].

Turning to `CCSc1c(CC)on(C(=O)N(c2ccc(Cl)cc2)C(C)C)c1=O`, the inhibition of growth at 2500 g/ha was 71% in data set [1]; 71% in the data set with Lindernia procumbens [4]; 71% in the data set on Eleocharis acicularis [7]; more than 91% with Cyperus serotinus [8]; more than 91% with Eleocharis kuroguwai [11]; more than 91% in the data set on Echinochloa oryzicola [12]. For the same molecule, the inhibition of growth at 1000 g/ha with Echinochloa oryzicola [2] was more than 91%; with Lindernia procumbens [3], 51%; in the data set on Cyperus serotinus [5] it was 71%; in the data set on Eleocharis kuroguwai [6], more than 91%; with Eleocharis acicularis [9] it was 51%; in [14] it was 51%. Besides, the inhibition at 504 h in [10] is 31%; in data set [13], less than 10%.

On to `CCCSc1c(C)on(C(=O)N(c2ccc(Cl)cc2)C(C)C)c1=O`, for which the inhibition of growth at 2500 g/ha (in data set [1]; with Lindernia procumbens [4]; in the data set with Eleocharis acicularis [7]; in the data set with Cyperus serotinus [8]; with Eleocharis kuroguwai [11]; in the data set on Echinochloa oryzicola [12]) was more than 91% each time. Further, the inhibition of growth at 1000 g/ha is more than 91% in the data set with Echinochloa oryzicola [2]; 51% in the data set with Lindernia procumbens [3]; more than 91% in the data set with Cyperus serotinus [5]; more than 91% in the data set with Eleocharis kuroguwai [6]; more than 91% in the data set on Eleocharis acicularis [9]; more than 91% in data set [14]. For the same molecule, the inhibition at 504 h in [10] is 31%; in [13], less than 10%.

For the origin of these results see ChEMBL document CHEMBL3044584, “4-Sulfenyl-2-carbamoyl-4-isoxazolin-3-ones: biological isostere to 4-chloro-2-carbamoyl-4-isoxazolin-3-ones” (Chem Pharm Bull (Tokyo), 2000).
